Source: ChEMBL document CHEMBL1130955, “Solid-phase synthesis of potential protein tyrosine phosphatase inhibitors via the Ugi four-component condensation” (Bioorg Med Chem Lett, 1998)

Assay: Compound was tested for the inhibition of PTP-epsilon at the concentration 100 uM

| inhibition [%] | SMILES |
| --- | --- |
| > 50 | O=C(NC(C(=O)NCc1ccccc1)c1ccc(Oc2ccccc2)cc1)c1ccc(C(F)(F)P(=O)(O)O)cc1 (stereo not drawn) |
| > 50 | CCCCCC(NC(=O)c1ccc(C(F)(F)P(=O)(O)O)cc1)C(=O)NCc1ccccc1 (stereo not drawn) |
| > 50 | CN(C)c1ccc(C(NC(=O)c2ccc(C(F)(F)P(=O)(O)O)cc2)C(=O)NCc2ccccc2)cc1 (stereo not drawn) |
